Measured values: article PMC8315060, “N-terminus-independent activation of c-Src via binding to a tetraspan(in) TM4SF5 in hepatocellular carcinoma is abolished by the TM4SF5 C-terminal peptide application” (Theranostics, 2021)
Blank lines part the entries; values can stand above or below the compound they belong to. Where a SMILES comes first, the peptide text is derived from it.

What was measured:
[1] = tested on: SNU449T7 cells stably expressing TM4SF5; assay: Mouse tumor xenograft of TM4SF5-expressing SNU449 cells; format: in vivo, BALB/c-nu/nu mice
Description: Mouse tumor xenograft: Four-week-old female or male BALB/c-nu/nu mice were purchased from Orient Co. Ltd (Seungnam, Korea). All animal procedures were performed in accordance with the Seoul National University Laboratory Animal Maintenance Manual and with Institutional Review Board approval (SNU-130311-6-2, SNU-140423-11-7). Mice were housed in a specific pathogen-free room under controlled temperature and humidity. Viable SNU449T7 cells (5 × 10^6) stably expressing TM4SF5 or PLC/PRF/5 cells (10^7) endogenously expressing TM4SF5 were resuspended in sterile PBS and injected subcutaneously into 5-week-old mice (n = 5 or 6, respectively). […] Body weight and tumor volume, which was determined as described previously, were measured daily.
Figure 7 TM4SF5 C-terminal peptides suppress TM4SF5-mediated tumorigenesis and metastasis. […] (E) Degradation of Oregon Green® 488-conjugated gelatin were analyzed for SNU761 cells stably expressing mock (mock) or TM4SF5WT with the 10 μM CPPs treatment for 24 h (mean ± SD values). (F) TM4SF5-null SNU449Cp (Cp) and stably TM4SF5-expressing SNU449Tp (Tp) cells were treated with the 10 μM CPPs for 24 h and then analyzed for transwell migration for 4 h (mean ± SD values in the graph). […] Surface nodules were counted and the mean ± SD values are presented (graph). […]

[2] = tested on: SNU449Tp cells expressing FAK-KD; assay: Transwell migration of FAK-KD-expressing SNU449Tp cells with PP2 or PP3; format: cell-based, human; conditions: SNU449Tp cells infected with FAK-KD adenovirus, 10 μM, transwell migration 12 h, 10% FBS in lower chamber; Figure S1C
[3] = tested on: SNU761-TM4SF5 cells; assay: Transwell chemotactic migration of SNU761-TM4SF5 cells with PP2; format: cell-based, human; conditions: PP2 10 μM, transwell migration 4 h, 10% FBS; Figure 3F and S2B
Description: SNU761 cells stably expressing TM4SF5WT were transiently transfected with control siRNA against a scrambled sequence (siControl) or PTP1B (siPTP1B) for 48 h before undergoing the Transwell migration assay for 4 h. Cells were treated with the CPPs before being loaded into the upper chambers. The cells were then analyzed for migration or invasion using Transwell chambers with 8-μm pores (Corning Inc., Corning, NY, USA), where the bottom chamber was filled with 1% BSA alone (in serum-free media) or normal culture media containing 10% FBS as explained previously. After incubation, the number of migrated cells from randomly saved images (n = 10) per condition was counted. The data are graphed as the mean ± standard deviation (SD) for each experimental condition.
Figure S2. TM4SF5-mediated invasion and migration involves PTP1B-regulated c-Src activity. (A) SNU761 cells stably expressing mock or TM4SF5WT were transiently transfected without (No T/F) or with c-Src WT, c-Src SH432, or c-Src SH1 expression constructs for 48 h prior to invasive ECM degradation analysis for 4 h. (B) SNU761 cells stably expressing TM4SF5WT were transiently transfected with control siRNA against a scrambled sequence (siControl) or a sequence in PTP1B (siPTP1B) for 48 h, prior to transwell migration assay for 4 h. […]

[4] = biological target: STrEP-tagged TM4SF5WT (UniProt O14894); assay: streptavidin pull-down and immunoblot; conditions: SNU449 cells with STrEP-TM4SF5; 50 kDa band, IP: STrEP lanes
[5] = Stability of peptides in mouse serum; format: in vitro ADME; conditions: C57BL/6 mouse serum, 10 ppm/reaction, 24 h vs 0 h (without mixing with serum), formic acid precipitation, LC (ZORBAX Eclipse C18) with ELSD; one range printed for both peptides; Figure S6A
Description: collected after centrifugation at 13,000 × g for 10 min and stored at -20 ℃. To analyze, we used the ZORBAX Eclipse C18 Column (2.6 × 250 mm, 5 μm) in the Agilent 1200 Infinity LC and kept the column temperature at 40 ℃. Injection volume from samples was 20 μL and for the mobile phase, MS grade water with 0.1% formic acid (‘a’) and MS grade acetonitrile (‘b’) were flowed at the velocity of 1 mL/min. The gradient per sample was ‘a’ (5%)/’b’(95%) for 0 and 5 min, ‘a’ (90%)/’b’(10%) for 10 min, and ‘a’ (40%)/’b’(60%) for 15 min. Agilent 1260 infinity ELSD was used with an LC stack for detection. […]

STrEP-tagged TM4SF5WT, sequence (O14894 whole entry): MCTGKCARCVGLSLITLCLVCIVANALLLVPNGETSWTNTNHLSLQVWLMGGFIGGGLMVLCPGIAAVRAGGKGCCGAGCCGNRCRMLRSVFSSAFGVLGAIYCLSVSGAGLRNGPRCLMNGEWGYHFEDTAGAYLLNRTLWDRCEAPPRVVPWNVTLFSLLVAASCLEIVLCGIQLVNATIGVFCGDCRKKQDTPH

Compound: CC(C)(C)n1nc(-c2ccc(Cl)cc2)c2c(N)ncnc21 [PP2]
- TM4SF5-dependent tumor formation in xenograft ([1]; 3 mg/kg subcutaneous injection every day for 10 days, n = 4, Figure S5A): suppressed TM4SF5-dependent tumor formation
- effect on xenograft tumor growth, 15-day treatment ([1]; n = 6, 15 days, PP2 3 mg/kg, TCsr 0.111 nmol/g, TcxC 0.095 nmol/g, Figure S5B): suppressive effect
- residual migration of FAK-KD cells [2]: abolished
- chemotactic migration of SNU761-TM4SF5 cells [3]: abolished

Compound: CC[C@H](C)[C@H](NC(=O)[C@@H](NC(=O)[C@H](CS)NC(=O)[C@@H]1CCCN1C(=O)[C@H](CCCNC(=N)N)NC(=O)[C@H](CCCNC(=N)N)NC(=O)[C@H](CCCNC(=N)N)NC(=O)[C@H](CCC(N)=O)NC(=O)[C@H](CCCNC(=N)N)NC(=O)[C@H](CCCNC(=N)N)NC(=O)[C@H](CCCCN)NC(=O)[C@H](CCCCN)NC(=O)[C@@H](N)CCCNC(=N)N)C(C)C)C(=O)N[C@@H](CCSC)C(=O)NCC(=O)N[C@@H](CC(=O)O)C(=O)N[C@@H](CS)C(=O)N[C@@H](CCCNC(=N)N)C(=O)N[C@@H](CCCCN)C(=O)N[C@@H](CCCCN)C(=O)N[C@@H](CCC(N)=O)C(=O)N[C@@H](CC(=O)O)C(=O)N[C@H](C(=O)N1CCC[C@H]1C(=O)N[C@@H](Cc1c[nH]cn1)C(=O)O)[C@@H](C)O [TcxC] (H-RKKRRQRRRPCVIMGDCRKKQDTPH-OH)
- peptide remaining after incubation in mouse serum [5]: 44-65%

Compound: C[C@@H](O)[C@H](NC(=O)[C@@H]1CCCN1C(=O)[C@H](CCCNC(=N)N)NC(=O)[C@H](CCCNC(=N)N)NC(=O)[C@H](CCCNC(=N)N)NC(=O)[C@H](CCC(N)=O)NC(=O)[C@H](CCCNC(=N)N)NC(=O)[C@H](CCCNC(=N)N)NC(=O)[C@H](CCCCN)NC(=O)[C@H](CCCCN)NC(=O)[C@@H](N)CCCNC(=N)N)C(=O)N[C@@H](CS)C(=O)N[C@@H](CCCCN)C(=O)N1CCC[C@H]1C(=O)N[C@@H](CC(=O)O)C(=O)N[C@@H](CCCCN)C(=O)NCC(=O)N[C@@H](CCC(N)=O)C(=O)N[C@@H](CCCNC(=N)N)C(=O)N[C@@H](Cc1c[nH]cn1)C(=O)N[C@@H](CC(=O)O)C(=O)O [TCsr] (H-RKKRRQRRRPTCKPDKGQRHD-OH)
- peptide remaining after incubation in mouse serum [5]: 44-65%

Now from value to compound:

- response (relative band intensity (ImageJ ratio)) [4]: 0
Compound: c-Src-SH321 Y419F; Y530F

- response (relative band intensity (ImageJ ratio)) [4]: 1
Compound: c-Src-SH321 Y419F

- response (relative band intensity (ImageJ ratio)) [4]: 0
Compound: c-Src-SH321 Y530F
